{"source": "patent US20040198791A1", "about": "(priority 2001, published 2004)", "data": [{"target": "T1, human NPY Y5 receptors (Homo sapiens, UniProt Q15761)", "T1 construct": "expressed in transfected cells; host or cells: HEK-293", "T1 sequence (Q15761 1-445)": "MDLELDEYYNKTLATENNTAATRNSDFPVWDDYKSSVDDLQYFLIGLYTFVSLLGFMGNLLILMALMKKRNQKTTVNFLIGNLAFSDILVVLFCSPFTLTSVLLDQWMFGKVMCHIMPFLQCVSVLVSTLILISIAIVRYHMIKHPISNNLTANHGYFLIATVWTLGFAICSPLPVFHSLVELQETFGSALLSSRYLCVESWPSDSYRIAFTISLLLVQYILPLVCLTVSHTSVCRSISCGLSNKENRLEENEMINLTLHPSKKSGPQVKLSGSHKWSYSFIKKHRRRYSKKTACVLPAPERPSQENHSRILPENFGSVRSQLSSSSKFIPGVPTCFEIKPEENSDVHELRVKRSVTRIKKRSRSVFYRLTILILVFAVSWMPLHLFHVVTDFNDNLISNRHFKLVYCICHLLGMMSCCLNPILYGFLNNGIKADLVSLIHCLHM", "assay": "Inhibition of [125I]-PYY binding to HEK-293 cells expressing human NPY Y5 receptors", "settings": "HEK-293 cells stably expressing human NPY Y5 receptors, 25° C., 120 minutes", "procedure": "Effects on binding ability of PYY(peptide YY) to HEK(human embryo kidneys)-293 cells transducted with human NPY(neuropeptide Y) Y5 receptors\nHEK-293 cells, which stably manifest human NPY Y5 receptors, were incubated at 25° C. for 120 minutes in the […] of test compounds in an assay medium containing 0.1 mM PMSF (phenylmethylsulfonyl fluoride), 0.05% bacitracin, 0.1% BSA (bovine serum albumin) and 25mM Tris HCl (pH 7.4). The non-specific binding was measured in the presence of […] non-labelled PYY. The reaction was terminated by rapidly filtering with Wattmann GF/C glass fiber filter with using the cell harvester. After the glass fiber filter was washed with 150 mM sodium chloride and 25 mM Tris HCl buffer solution (pH 7.4) containing 0.01% BSA, radioactivity of the […] was measured by using the γ-counter. The IC50 value of the test compound was determined by the inhibition of [^125I]-PYY binding obtained by the test compound at various concentrations. The test compound is represented with the Example number in which the compound was obtained.", "units": {"IC50": "nM"}, "values": [{"smiles": "c1ccc(-c2nc3c([nH]2)-c2ccccc2CCC3)cc1", "note": "[8 (5), 2-Phenyl-5,6-dihydro-4H-1,3-diazabenzo[e]azulene]", "IC50": 5.8}, {"smiles": "c1cncc(-c2nc3c([nH]2)-c2ccccc2CCC3)c1", "note": "[8 (7), 2-(Pyridin-3-yl)-5,6-dihydro-4H-1,3-diazabenzo[e]azulene]", "IC50": 7.3}, {"smiles": "Fc1ccc2c(c1)-c1[nH]c(-c3ccncc3)nc1CCC2", "note": "[10 (2), 9-Fluoro-2-(pyridin-4-yl)-5,6-dihydro-4H-1,3-diazabenzo[e]azulene]", "IC50": 13}, {"smiles": "c1ccc(-c2nc3c([nH]2)CCOc2ccccc2-3)cc1", "note": "[8 (15), 2-Phenyl-4,5-dihydro-3H[l]benzoxepino[4,5-d]imidazole]", "IC50": 61}, {"smiles": "COc1ccc2c(c1)-c1nc(-c3ccccc3)[nH]c1CC2", "note": "[8 (4), 8-Methoxy-2-phenyl-4,5-dihydronaphtho[1,2-d]imidazole]", "IC50": 51}, {"smiles": "Fc1ccc2c(c1)-c1nc(-c3cccnc3)[nH]c1CCC2", "note": "[10 (1), 9-Fluoro-2-(pyridin-3-yl)-5,6-dihydro-4H-1,3-diazabenzo[e]azulene]", "IC50": 6.9}, {"smiles": "COc1ccc2c(c1)-c1nc(-c3ccccc3)[nH]c1CCC2", "note": "[8 (1), 9-Methoxy-2-phenyl-3,4,5,6-tetrahydro-1,3-diazabenzo[e]azulene]", "IC50": 25}, {"smiles": "Cc1ccc2c(c1)-c1[nH]c(-c3ccccn3)nc1CCC2", "note": "[8 (12), 2-(Pyridin-2-yl)-5,6-dihydro-9-methyl-4H-1,3-diazabenzo[e]azulene]", "IC50": 32}, {"smiles": "Cc1ccc2c(c1)-c1[nH]c(-c3cccnc3)nc1CCC2", "note": "[8 (13), 2-(Pyridin-3-yl)-5,6-dihydro-9-methyl-4H-1,3-diazabenzo[e]azulene]", "IC50": 2.3}, {"smiles": "Cc1ccc2c(c1)-c1[nH]c(-c3ccncc3)nc1CCC2", "note": "[8 (14), 2-(Pyridin-4-yl)-5,6-dihydro-9-methyl-4H-1,3-diazabenzo[e]azulene]", "IC50": 6.4}, {"smiles": "c1ccc(-c2nc3c([nH]2)-c2ccccc2CCC3)nc1", "note": "[8 (6), 2-(Pyridin-2-yl)-5,6-dihydro-4H-1,3-diazabenzo[e]azulene]", "IC50": 130}, {"smiles": "COc1ccc2c(c1)-c1nc(-c3ccncc3)[nH]c1CCC2", "note": "[Example 7, 9-methoxy-2-(pyridin-4-yl)-3,4,5,6-tetrahydro-1,3-diazabenzo[e]azulene]", "IC50": 13}, {"smiles": "c1ccc2c(c1)CCCc1[nH]c(-c3c[nH]cn3)nc1-2", "note": "[8 (11)]", "IC50": 550}, {"smiles": "c1ccc2c(c1)CCCc1nc(-c3ccc4c(c3)OCCO4)[nH]c1-2", "note": "[8 (9), 2-(1,4-Benzodioxan-6-yl)-5,6-dihydro-4H-1,3-diazabenzo[e]azulene]", "IC50": 180}, {"smiles": "Fc1ccc2c(c1)-c1[nH]c(-c3ccccn3)nc1CCC2", "note": "[Example 9, 9-fluoro-2-(pyridin-2-yl)-5,6-dihydro-4H-1,3-diazabenzo[e]azulene]", "IC50": 46}, {"smiles": "COc1ccc2c(c1)-c1nc(-c3ccccn3)[nH]c1CCC2", "note": "[8 (3), 9-Methoxy-2-(pyridin-2-yl)-3,4,5,6-tetrahydro-1,3-diazabenzo[e]azulene]", "IC50": 120}, {"smiles": "CC(C)n1nc(-c2nc3c([nH]2)-c2ccccc2CCC3)ccc1=O", "note": "[8 (10), 2-(1-Isopropyl-6-oxo-1,6-dihydropyridazin-3-yl)-5,6-dihydro-4H-1,3-diazabenzo[e]azulene]", "IC50": 260}, {"smiles": "COc1ccc2c(c1)-c1c(nc(-c3ccccc3)n1O)CCC2", "note": "[2 (1), 9-Methoxy-2-phenyl-5,6-dihydro-4H-1,3-diazabenzo[e]azulen-1-ol]", "IC50": 24}, {"smiles": "Clc1ccc2c(c1)-c1[nH]c(-c3ccccc3)nc1CCC2", "note": "[Example 11, 9-chloro-2-phenyl-5,6-dihydro-4H-1,3-diazabenzo[e]azulene]", "IC50": 1.7}, {"smiles": "COc1ccc2c(c1)-c1c(nc(-c3ccncc3)n1O)CCC2", "note": "[Example 1, 9-methoxy-2-(pyridin-4-yl)-5,6-dihydro-4H-1,3-diazabenzo[e]azulen-1-ol]", "IC50": 73}, {"smiles": "c1ccc2c(c1)CCCc1nc(-c3ccncc3)[nH]c1-2", "note": "[8 (8), 2-(Pyridin-4-yl)-5,6-dihydro-4H-1,3-diazabenzo[e]azulene]", "IC50": 20}, {"smiles": "COc1ccc2c(c1)-c1nc(-c3cccnc3)[nH]c1CCC2", "note": "[8 (2), 9-Methoxy-2-(pyridin-3-yl)-3,4,5,6-tetrahydro-1,3-diazabenzo[e]azulene]", "IC50": 6.3}]}]}
